Usually IC50 stands for the midpoint of a concentration-inhibition curve.

One assay concerns Fusarium verticillioides. Description: Fungicidal activity against Fusarium moniliforme grown under potato-saccharose agar assessed as inhibition of mycelial radial growth at 30 mg/l incubated for 72 hrs. The note with it: read-out: GI. In kind it is functional.
Another assay relates to Fusarium oxysporum. In words: Fungicidal activity against Fusarium oxysporum grown under potato-saccharose agar assessed as inhibition of mycelial radial growth at 30 mg/l incubated for 72 hrs. The note with it: read-out: GI. In kind it is functional.
The subject of the next assay is Rhizoctonia solani. In words: Fungicidal activity against Rhizoctonia solani grown under potato-saccharose agar assessed as inhibition of mycelial radial growth at 30 mg/l incubated for 72 hrs. The assay is classed as functional. The settings on record: read-out: GI.
The next assay deals with Venturia inaequalis. Description: Fungicidal activity against Venturia inaequalis grown under potato-saccharose agar assessed as inhibition of mycelial radial growth at 30 mg/l incubated for 72 hrs. The settings on record: read-out: GI. In kind it is functional.
A further assay relates to Bipolaris sorokiniana. In words: Fungicidal activity against Bipolaris sorokiniana grown under potato-saccharose agar assessed as inhibition of mycelial radial growth at 30 mg/l incubated for 72 hrs. In kind it is functional. The settings on record: read-out: GI.
Another assay relates to Sclerotinia sclerotiorum. Description: Fungicidal activity against Sclerotinia sclerotiorum grown under potato-saccharose agar assessed as inhibition of mycelial radial growth at 30 mg/l incubated for 72 hrs. In kind it is functional. The note with it: read-out: GI.
A further assay deals with RD. Description: Cytotoxicity in human RD cells assessed as inhibition of cell growth incubated for 72 hrs by MTT assay. In kind it is functional, cell-based. In general terms: Formazan colour is commonly taken as a measure of viable cells.
The test system of another assay is MCF7. In words: Cytotoxicity in human MCF7 cells assessed as inhibition of cell growth incubated for 72 hrs by MTT assay. The note with it: MCF7, 72 h. In kind it is functional, cell-based.
The test system of the next assay is A549. In words: Cytotoxicity in human A549 cells assessed as inhibition of cell growth incubated for 72 hrs by MTT assay. In kind it is functional, cell-based. The settings on record: A549, 72 h.
Assay [1] is described as follows: Cytotoxicity in human […] cells assessed as inhibition of cell growth incubated for 72 hrs by MTT assay. The assay is classed as functional, cell-based.
Another assay deals with HEK293. Description: Cytotoxicity in human HEK293 cells assessed as inhibition of cell growth incubated for 72 hrs by MTT assay. The assay is classed as cell-based. The note with it: Homo sapiens, HEK293, 72 h; read-out: IC50.

For `CSC1=NC2C(N(C)C(=O)N2c2ccccc2)N1/N=C/C=C/c1ccccc1` (stereo unspecified), the inhibition of growth at 30 µg/mL in the assay with Fusarium verticillioides came to 16%; in the assay with Fusarium oxysporum, 25%; in the assay with Rhizoctonia solani, 32%; in the assay on Venturia inaequalis, 24%; in the assay on Bipolaris sorokiniana it was 56%; in the assay with Sclerotinia sclerotiorum, 0%.
For `CN1C(=O)N(C)C2C1N=C(SCc1ccc(Cl)cc1)N2/N=C/C=C/c1ccccc1` (stereo unspecified), the inhibition of growth at 30 µg/mL amounted to 57% with Fusarium verticillioides; 46% in the assay with Fusarium oxysporum; 28% in the assay with Rhizoctonia solani; 18% in the assay on Venturia inaequalis; 49% with Bipolaris sorokiniana; 17% in the assay on Sclerotinia sclerotiorum.
As for `COc1ccccc1/C=C/C=N/N1C(SC)=NC2C1N(C)C(=O)N2C` (stereo unspecified), the inhibition of growth at 30 µg/mL in the assay with Fusarium verticillioides was found to be 14%; with Fusarium oxysporum, 20%; in the assay on Rhizoctonia solani, 56%; with Venturia inaequalis it was 13%; in the assay with Bipolaris sorokiniana, 33%; in the assay on Sclerotinia sclerotiorum it was 13%.
With `CCN1C(=O)N(CC)C2C1N=C(SC)N2/N=C/C=C/c1ccc(OC)cc1` (stereo unspecified), the inhibition of growth at 30 µg/mL with Fusarium verticillioides is 32%; with Fusarium oxysporum, 32%; with Rhizoctonia solani, 76%; in the assay with Venturia inaequalis, 13%; in the assay with Bipolaris sorokiniana, 64%; with Sclerotinia sclerotiorum, 12%.
Take `CCN1C(=O)N(CC)C2C1NC(=S)N2/N=C/C(C)=C/c1ccccc1` (stereo unspecified): the inhibition of growth at 30 µg/mL is 41% in the assay on Fusarium verticillioides; 23% in the assay with Fusarium oxysporum; 34% in the assay on Rhizoctonia solani; 25% with Venturia inaequalis; 7% in the assay on Bipolaris sorokiniana; 5% in the assay on Sclerotinia sclerotiorum. The half-inhibitory concentration (IC50) in the assay with RD was 20 µM; with MCF7, 35.1 µM; with A549, over 100 µM; in [1], 26.6 µM.
On to `CSC1=NC2C(N(C)C(=O)N2C)N1/N=C/C=C/c1ccccc1[N+](=O)[O-]` (stereo unspecified), for which the inhibition of growth at 30 µg/mL in the assay with Fusarium verticillioides is 19%; in the assay with Fusarium oxysporum, 20%; in the assay on Rhizoctonia solani it was 49%; in the assay on Venturia inaequalis, 10%; in the assay with Bipolaris sorokiniana, 36%; in the assay on Sclerotinia sclerotiorum it was 13%. Further, the IC50 (with RD; in the assay with MCF7; in the assay on A549; in assay [1]) was over 100 µM throughout.
With `CCN1C(=O)N(CC)C2C1N=C(SCc1ccc(Cl)cc1)N2/N=C/C=C/c1ccccc1OC` (stereo unspecified), the inhibition of growth at 30 µg/mL in the assay on Fusarium verticillioides came to 13%; in the assay on Fusarium oxysporum it was 8%; in the assay with Rhizoctonia solani, 19%; in the assay with Venturia inaequalis, 21%; in the assay with Bipolaris sorokiniana it was 36%; in the assay on Sclerotinia sclerotiorum, 14%.
As to `CN1C(=O)N(C)C2C1NC(=O)N2/N=C/C=C/c1ccccc1` (stereo unspecified), the inhibition of growth at 30 µg/mL in the assay on Fusarium verticillioides was 9%; with Fusarium oxysporum, 6%; with Rhizoctonia solani, 92%; with Venturia inaequalis, 18%; with Bipolaris sorokiniana it was 5%; with Sclerotinia sclerotiorum it was 12%.
On to `CCN1C(=O)N(c2ccccc2)C2NC(=S)N(/N=C/C=C/c3ccccc3)C21` (stereo unspecified), for which the IC50 in the assay on RD was 0.47 µM; in the assay on HEK293, 2.17 µM; in the assay with MCF7, 2.25 µM; with A549 it was over 100 µM; in [1], 1.46 µM.
`CCSC1=NC2C(N(CC)C(=O)N2CC)N1/N=C/C=C/c1ccccc1` (stereo unspecified): the inhibition of growth at 30 µg/mL in the assay on Fusarium verticillioides turned out to be 63%; in the assay on Fusarium oxysporum, 61%; in the assay on Rhizoctonia solani, 67%; in the assay on Venturia inaequalis it was 30%; in the assay on Bipolaris sorokiniana, 77%; with Sclerotinia sclerotiorum it was 29%.
Consider `CSC1=NC2C(N(C)C(=O)N2C)N1/N=C/C=C/c1ccco1` (stereo unspecified), for which the inhibition of growth at 30 µg/mL came to 51% in the assay with Fusarium verticillioides; 34% in the assay on Fusarium oxysporum; 27% in the assay on Rhizoctonia solani; 19% in the assay on Venturia inaequalis; 34% with Bipolaris sorokiniana; 11% in the assay with Sclerotinia sclerotiorum.
Take `CCSC1=NC2C(N(C)C(=O)N2C)N1/N=C/C=C/c1ccccc1` (stereo unspecified): the inhibition of growth at 30 µg/mL in the assay on Fusarium verticillioides was 71%; with Fusarium oxysporum, 70%; in the assay with Rhizoctonia solani it was 80%; in the assay with Venturia inaequalis, 28%; in the assay with Bipolaris sorokiniana, 48%; in the assay on Sclerotinia sclerotiorum, 32%.
As for `COc1cccc2c1C(=O)c1c(O)c3c(c(O)c1C2=O)C[C@@](O)(C(C)=O)C[C@@H]3O[C@H]1C[C@H](N)[C@H](O)[C@H](C)O1` [DAUNORUBICIN], the IC50 in the assay on RD is 2.45 µM; in the assay on HEK293, 11.2 µM; in the assay on MCF7 it was 1.44 µM; in the assay with A549 it was 0.51 µM; in [1] it was 0.21 µM.
Consider `CSC1=NC2C(N(C)C(=O)N2C)N1/N=C/C=C/c1ccccc1` (stereo unspecified), for which the inhibition of growth at 30 µg/mL in the assay with Fusarium verticillioides is 73%; with Fusarium oxysporum it was 71%; in the assay on Rhizoctonia solani, 45%; in the assay with Venturia inaequalis it was 9%; with Bipolaris sorokiniana, 50%; in the assay with Sclerotinia sclerotiorum, 17%.
As for `CCN1C(=O)N(CC)C2C1NC(=S)N2/N=C/C=C/c1ccc(OC)cc1` (stereo unspecified), the inhibition of growth at 30 µg/mL in the assay with Fusarium verticillioides came out at 23%; in the assay with Fusarium oxysporum, 18%; in the assay with Rhizoctonia solani, 26%; with Venturia inaequalis it was 14%; in the assay with Bipolaris sorokiniana, 19%; in the assay on Sclerotinia sclerotiorum it was 0%. Also, the half-maximal inhibitory concentration (IC50) in the assay with RD was found to be 87 µM; with MCF7, 36.6 µM; in the assay on A549 it was 17.2 µM; in assay [1], 17.4 µM.
For `CCN1C(=O)N(CC)C2C1N=C(SC)N2/N=C/C=C/c1ccccc1[N+](=O)[O-]` (stereo unspecified), the half-maximal inhibitory concentration (IC50) with RD was 41.9 µM; in the assay with MCF7, 66.7 µM; with A549, over 100 µM; in [1], 65.6 µM.
For `COc1ccc(/C=C/C=N/N2C(SC)=NC3C2N(C)C(=O)N3C)cc1` (stereo unspecified), the inhibition of growth at 30 µg/mL in the assay on Fusarium verticillioides is 36%; in the assay with Fusarium oxysporum, 24%; in the assay with Rhizoctonia solani it was 74%; in the assay on Venturia inaequalis, 13%; in the assay with Bipolaris sorokiniana it was 50%; with Sclerotinia sclerotiorum, 19%.
Consider `CN1C(=O)N(C)C2C1N=C(SCc1ccc(Cl)cc1)N2/N=C/C=C/c1ccco1` (stereo unspecified), for which the inhibition of growth at 30 µg/mL came out at 42% with Fusarium verticillioides; 33% in the assay on Fusarium oxysporum; 42% in the assay with Rhizoctonia solani; 10% in the assay on Venturia inaequalis; 40% with Bipolaris sorokiniana; 19% with Sclerotinia sclerotiorum.
With `COc1cccc2c1C(=O)c1c(O)c3c(c(O)c1C2=O)C[C@@](O)(C(=O)CO)C[C@@H]3O[C@H]1C[C@H](N)[C@H](O)[C@H](C)O1` [DOXORUBICIN], the concentration for half-maximal inhibition (IC50) in the assay with RD is 0.53 µM; in the assay with HEK293, 2.1 µM; in the assay on MCF7 it was 0.56 µM; in the assay on A549 it was 0.53 µM; in [1], 0.19 µM.
In the case of `CCN1C(=O)N(CC)C2C1NC(=O)N2/N=C/C=C/c1ccccc1[N+](=O)[O-]` (stereo unspecified), the half-inhibitory concentration (IC50) was 1.93 µM in the assay on RD; 42.9 µM in the assay on HEK293; 88 µM with MCF7; over 100 µM in the assay on A549; 9.63 µM in assay [1].
As for `CC(/C=N/N1C(=S)NC2C1N(C)C(=O)N2C)=C\c1ccccc1` (stereo unspecified), the inhibition of growth at 30 µg/mL was 20% in the assay on Fusarium verticillioides; 29% in the assay on Fusarium oxysporum; 82% with Rhizoctonia solani; 28% in the assay with Venturia inaequalis; 9% with Bipolaris sorokiniana; 11% in the assay with Sclerotinia sclerotiorum. In addition, the half-inhibitory concentration (IC50) in the assay with RD was 84 µM; in the assay with MCF7, over 100 µM; in the assay with A549 it was 49.4 µM; in assay [1] it was 75.9 µM.
With `COc1ccc(/C=C/C=N/N2C(=S)NC3C2N(C)C(=O)N3C)cc1` (stereo unspecified), the IC50 with RD is over 100 µM; in the assay on MCF7, over 100 µM; in the assay with A549, over 100 µM; in assay [1] it was 99.1 µM.
For `CSC1=NC2C(N(C)C(=O)N2c2ccccc2)N1/N=C/C=C/c1ccccc1[N+](=O)[O-]` (stereo unspecified), the inhibition of growth at 30 µg/mL in the assay on Fusarium verticillioides turned out to be 9%; in the assay with Fusarium oxysporum, 10%; with Rhizoctonia solani it was 12%; with Venturia inaequalis, 16%; in the assay on Bipolaris sorokiniana, 37%; in the assay on Sclerotinia sclerotiorum, 17%.
On to `CN1C(=O)N(C)C2C1NC(=S)N2/N=C/C=C/c1ccccc1` (stereo unspecified), for which the IC50 in the assay on RD is 46 µM; in the assay with MCF7 it was over 100 µM; in the assay with A549 it was 45.6 µM; in [1] it was 43 µM.
Turning to `CC(C)(C)C(=O)C(Oc1ccc(Cl)cc1)n1cncn1` (stereo unspecified) [TRIADIMEFON], the inhibition of growth at 30 µg/mL was 61% in the assay with Fusarium verticillioides; 64% in the assay on Fusarium oxysporum; 52% in the assay on Rhizoctonia solani; 60% with Venturia inaequalis; 76% in the assay with Bipolaris sorokiniana; 61% in the assay with Sclerotinia sclerotiorum.

The record behind these values is ChEMBL document CHEMBL4190345, “Synthesis and biological evaluation of new substituted thioglycolurils, their analogues and derivatives” (Eur J Med Chem, 2017).
